Laboratory results as given in US20230277533A1, “THERAPEUTIC COMBINATIONS COMPRISING UBIQUITIN-SPECIFIC-PROCESSING PROTEASE 1 (USP1) INHIBITORS AND POLY (ADP-RIBOSE) POLYMERASE (PARP) INHIBITORS” (KSQ Therapeutics, Inc., priority 2020, published 2023).
Read-outs that look alike come from different tables or passages of the source.

Key:
Assay in all cases: Colony formation (CFU) assay
Format in all cases: cell-based
CW2 = settings: Homo sapiens, CW-2, CW2, colon
Experimental: (§1) In vitro experiments were conducted using the colony formation unit (CFU) assay on various cell lines. The CFU assay involved first establishing what cell plating density enabled the development of clearly interspersed colonies on a six-well plate when left to grow for around 14 days. […] Media was changed on day 8 containing appropriate concentrations of DMSO, USP1 inhibitor, Niraparib, or Olaparib. At or around day 14 when clearly interspersed colonies were visible in the DMSO treated wells, the cells were fixed and stained using 0.1% crystal violet in 10% ethanol for 20 minutes at room temperature. The plates were imaged then the amount of crystal violet stain in each well was quantified by extracting the crystal violet into 10% acetic acid and the absorbance measured at 565 nm.
(§2) IC50 values were calculated by fitting a two-parameter hill equation to the dose-response measurements. Non-linear-least-squares was used to find parameter values that minimize the squared error of the model fit to measured dose response. Non-linear-least-squares estimation was performed using the minpack.lm R package, version 1.2-1. Bliss synergy scores were calculated using the synergyfinder R package version 1.6.1.

COV362 = system: COV362
Experimental: as §1, §2

TE11 = settings: Homo sapiens, TE-11, TE11, esophagus
Experimental: as §1, §2

HCT116 = settings: Homo sapiens, HCT-116, HCT116, colon
Experimental: as §1, §2

HCC1806 = settings: Homo sapiens, HCC1806, breast
Experimental: as §1, §2

UWB1289BRCA1 = settings: UWB1289BRCA1, ovary
Experimental: as §1, §2

HPAC = settings: Homo sapiens
Experimental: as §1, §2

MDAMB436 = settings: Homo sapiens, MDA-MB-436, MDAMB436, breast
Experimental: as §1, §2

NCIH520 = settings: Homo sapiens, NCI-H520, NCIH520, lung
Experimental: as §1, §2

MSTO211H = settings: Homo sapiens, MSTO-211H
Experimental: as §1, §2

GB1 = settings: Homo sapiens, GB-1; GB1, nervous system
Experimental: In vitro experiments were conducted using the colony formation unit (CFU) assay on various cell lines. The CFU assay involved first establishing what cell plating density enabled the development of clearly interspersed colonies on a six-well plate when left to grow for around 14 days. Once this density had been identified, cells were plated on day −1 and on day 0, the wells were treated with DMSO or increasing concentrations of USP1 inhibitor or Niraparib (3 nM, 10 nM, 30 nM, 100 nM, and 300 nM), or increasing concentrations of USP1 inhibitor or Olaparib (3 nM, 10 nM, 30 nM, 100 nM, and 300 nM). Media was changed on day 8 containing appropriate concentrations of DMSO, USP1 inhibitor, Niraparib, or Olaparib. […] The plates were imaged then the amount of crystal violet stain in each well was quantified by extracting the crystal violet into 10% acetic acid and the absorbance measured at 565 nm.
IC50 values were calculated by fitting a two-parameter hill equation to the dose-response measurements. Non-linear-least-squares was used to find parameter values that minimize the squared error of the model fit to measured dose response. […] Bliss synergy scores were calculated using the synergyfinder R package version 1.6.1.

HCC1395 = settings: Homo sapiens; HCC1395, breast
Experimental: as §1, §2

HSC2 = settings: Homo sapiens, HSC-2; HSC2, head and neck
Experimental: as §1, §2

BICR18 = settings: BICR18, head and neck
Experimental: as §1, §2

SNUC4 = settings: Homo sapiens, SNU-C4; SNUC4, colon
Experimental: as §1, §2

NCIH1648 = settings: Homo sapiens, NCI-H1648; NCIH1648, lung
Experimental: as §1, §2

HMC18 = settings: HMC18, breast
Experimental: as §1, §2

KYSE140 = settings: Homo sapiens, KYSE-140; KYSE140, esophagus
Experimental: as §1, §2

HS888T = settings: bone
Experimental: as §1, §2

HPAFII = settings: Homo sapiens, HPAF-II, pancreas
Experimental: as §1, §2

LU99 = settings: Homo sapiens, Lu-99; LU99, lung
Experimental: as §1, §2

SNU81 = settings: SNU81, colon
Experimental: as §1, §2

HOS = settings: Homo sapiens, bone
Experimental: as §1, §2

OV56 = settings: OV56, ovary
Experimental: as §1, §2

SNU1076 = settings: SNU1076, head and neck
Experimental: as §1, §2

MDAMB231 = settings: Homo sapiens, MDA-MB-231; MDAMB231, breast
Experimental: as §1, §2

OVA2BUR = settings: ovary
Experimental: as §1, §2

VMRCRCW = settings: kidney
Experimental: as §1, §2

U2OS = settings: Homo sapiens, bone
Experimental: as §1, §2

HCC95 = settings: Homo sapiens; HCC95, lung
Experimental: as §1, §2

TE9 = settings: Homo sapiens, TE-9; TE9, esophagus
Experimental: as §1, §2

| Structure (SMILES) | IC50 (GB1) | IC50 (CW2) | activity as single agents (COV362; COV362) | IC50 (HCC1395) | IC50 (TE11) | IC50 (HCT116) | IC50 (HCC1806) | IC50 (HSC2) | IC50 (BICR18) | IC50 (SNUC4) | IC50 (NCIH1648) | IC50 (HMC18) | IC50 (KYSE140) | IC50 (HS888T) | IC50 (HPAFII) | IC50 (UWB1289BRCA1) | IC50 (HPAC; pancreas) | IC50 (MDAMB436) | IC50 (NCIH520) | IC50 (LU99) | other results |
| --- | --- | --- | --- | --- | --- | --- | --- | --- | --- | --- | --- | --- | --- | --- | --- | --- | --- | --- | --- | --- | --- |
| COc1ncnc(C2CC2)c1-c1ncc2cnn(Cc3ccc(-c4nc(C(F)(F)F)cn4C(C)C)cc3)c2n1 [Formula I, 6-(4-cyclopropyl-6-methoxypyrimidin-5-yl)-1-(4-(1-isopropyl-4-(trifluoromethyl)-1H-imidazol-2-yl)benzyl)-1H-pyrazolo[3,4-d]pyrimidine] |  |  |  |  |  |  |  |  |  |  |  |  |  |  |  |  |  |  |  |  | IC50 (CW2; Table 2): 67 nM; IC50 (COV362; Table 2, COV362, ovary, read-out: IC50): 203 nM; IC50 (TE11; Table 2): > 316 nM; IC50 (HCT116; Table 2): > 316 nM; IC50 (HCC1806; Table 2): 62 nM; IC50 (UWB1289BRCA1; Table 2): 113 nM; IC50 (HPAC; Table 2, pancreas): > 316 nM; IC50 (MDAMB436; Table 2): 4.5 nM; IC50 (NCIH520; Table 2): > 316 nM; IC50 (MSTO211H; Table 2, lung): > 316 nM |
| NC(=O)c1cccc2cn(-c3ccc([C@@H]4CCCNC4)cc3)nc12 [Niraparib, niraparib, reference compound] | > 300 nM | > 300 nM | modest activity | 8.26 nM | 176 nM | > 300 nM | 62.9 nM | > 300 nM | > 300 nM | > 300 nM | > 300 nM | > 300 nM | > 300 nM | > 300 nM | > 300 nM | 186 nM | > 300 nM | 4.73 nM | > 300 nM | 88.6 nM | IC50 (COV362; COV362, ovary, read-out: IC50): 177 nM; IC50 (SNU81): 18.6 nM; IC50 (HOS): > 300 nM; IC50 (OV56): > 300 nM; IC50 (SNU1076): > 300 nM; IC50 (MDAMB231): > 300 nM; IC50 (OVA2BUR): > 300 nM; IC50 (VMRCRCW): > 300 nM; IC50 (U2OS): > 300 nM; IC50 (HCC95): > 300 nM; IC50 (MSTO211H; lung): > 300 nM; IC50 (TE9): > 300 nM |
| COc1ncnc(C2CC2)c1-c1ncc2cnn(Cc3ccc(-c4nc(C(F)(F)F)cn4C)cc3)c2n1 [Formula II, 6-(4-cyclopropyl-6-methoxypyrimidin-5-yl)-1-(4-(1-methyl-4-(trifluoromethyl)-1H-imidazol-2-yl)benzyl)-1H-pyrazolo[3,4-d]pyrimidine] | > 300 nM | > 300 nM | modest activity | > 300 nM | 134 nM | 110 nM | 114 nM | > 300 nM | > 300 nM | > 300 nM | > 300 nM | > 300 nM | > 300 nM | > 300 nM | > 300 nM | 139 nM | > 300 nM | 6.46 nM | > 300 nM | 35.4 nM | IC50 (COV362; COV362): > 300 nM; IC50 (SNU81): 10.2 nM; IC50 (HOS): > 300 nM; IC50 (OV56): > 300 nM; IC50 (SNU1076): > 300 nM; IC50 (MDAMB231): > 300 nM; IC50 (OVA2BUR): > 300 nM; IC50 (VMRCRCW): > 300 nM; IC50 (U2OS): > 300 nM; IC50 (HCC95): > 300 nM; IC50 (MSTO211H; lung): > 300 nM; IC50 (TE9): > 300 nM |
